The values below come from patent publication US20140271847A1, “FORMULATIONS AND METHODS FOR RAPID PENILE ERECTIONS” (SatisPharma, LLC, priority 2013, published 2014).

Structures can show the parent of a compound that is named as a salt.

For one data set, the system named is penis. As to the kind of experiment: Time to penile erection / firmness after taking the ED medication or formulation. It is filed as in vivo, human. As to conditions: blood circulation limited to about 50%; for time it remains effective / time to become effective: normal dose of 100 mg Viagra® or 10 mg Levitra®, one subject. The source says:
Responses of individuals to ED medications may vary widely from one to another and from time to time. The nature and intensity of emotional and physical stimulation are significant factors, and the health of the individual can be significant. Fatigue, time of day, time since last coitus or ejaculation, and blood circulation are factors influencing response. One particular subject had no response to Cialis®. Their heart damage and occluded artery limit blood circulation to about 50%. Thus this particular subject is not a good benchmark for measuring the effectiveness of each formulation; this particular subject experiences a normal dose of 100 mg Viagra® or 10 mg Levitra® usually takes about 2 hours to become effective and then remains effective for about 8 hours (double the usual times for a person with normal blood circulation). Nevertheless, this subject has achieved erection and cotius within 30 minutes using some formulations of this invention.

For data set [1] the following is noted: cited from earlier work.
Data set [2] is described as follows: Solubilities of ED medications in solvents known to permeate the skin (Example 1). It is filed as physicochemical. How it is done: A series of experiments were performed in order to learn the solubilities of ED medications in solvents known to permeate the skin safely.
The nature of data set [3]: Solubility of ED medications as stated in the description. It is filed as physicochemical. The source says: In order for an ED medication to be absorbed into mucosal tissues, it must first be dissolved in a medium of transport. […] Sildenafil citrate is also more soluble in ethanol than water and in propylene glycol than in water.

On to `CN1CC(=O)N2[C@H](c3ccc4c(c3)OCO4)c3[nH]c4ccccc4c3C[C@@H]2C1=O` [Tadalafil, tadalafil], for which the “response to ED medication” value in the data set on penis (one particular subject) is given as “no response”. The “solubility in water (in words)” value in data set [1] is reported as “freely soluble”.
On to `CCCc1nc(C)c2c(=O)[nH]c(-c3cc(S(=O)(=O)N4CCN(CC)CC4)ccc3OCC)nn12` [Vardenafil, vardenafil hydrochloride], for which, in the data set on penis, the “time it remains effective” value is “about 8 hours” and the “time to become effective” value is reported as “about 2 hours”. Moreover, the “solubility in alcohols (in words)” value in data set [1] (alcohols) was “freely soluble”. In data set [1], the “solubility in water (in words)” value is “freely soluble”.
For the molecule `CCCc1nn(C)c2c(=O)[nH]c(-c3cc(S(=O)(=O)N4CCN(C)CC4)ccc3OCC)nc12.O=C(O)CC(O)(CC(=O)O)C(=O)O` [sildenafil citrate], the “Result (solubility)” value is “slightly soluble” in data set [2] (35 mg sildenafil citrate in diethylene glycol monoethyl ether, 10 ml); “fully soluble” in data set [2] (35 mg sildenafil citrate in ethanol, 190 proof, 10 ml); “dispersion” in data set [2] (35 mg sildenafil citrate in glycerin, 10 ml + citric acid, 150 mg); “mostly soluble” in data set [2] (35 mg sildenafil citrate in isopropyl myristate, 10 ml); “fully soluble” in data set [2] (35 mg sildenafil citrate in propylene glycol, 10 ml); “dispersion” in data set [2] (35 mg sildenafil citrate in triacetin 10 ml). The “Result (solubility)” value in data set [2] (49 mg sildenafil citrate in nicotine, 2 ml) was “fully soluble”; in data set [2] (70 mg sildenafil citrate in ethanol, 190 proof, 10 ml), “fully soluble”; in data set [2] (70 mg sildenafil citrate in propylene glycol, 10 ml) it was “mostly soluble”. The solubility in nicotine result in data set [3] was “surprisingly high solubility”. Also, the “time it remains effective” value in the data set on penis is “about 8 hours”. The “time to become effective” value in the data set with penis is “about 2 hours”. The “solubility in ethanol compared with water” value in data set [1] (ethanol versus water) is reported as “more soluble”. The “solubility in propylene glycol compared with water” value in data set [1] (propylene glycol versus water) was “more soluble”. In data set [1] (water at pH=4, relative to 3.5 mg/ml at pH=7.0), the “solubility in water relative to pH 7.0” value is “about triple”. For the same molecule, in data set [1] (water at pH=7.0), the solubility in water is 3500 µg/mL.
